Data reported in US10383848B2, “Indole-based therapeutics” (Creighton University, priority 2016, dated 2019).
Values after ≈ are worked out from the molar mass of the structure shown. Read-outs that look alike come from different tables or passages of the source.

What was measured:
M. abscessus 1513 = experiment: MIC/MBC by microbroth dilution (MH or 7H9 broth); type: cell-based, M. abscessus subsp. abscessus; conditions: Mycobacteroides abscessus, 1513; for MBC: 7H9 broth, read-out: MBC99 M. abscessus subsp. abscessus 1513
M. abscessus 103 [1] = experiment: MIC/MBC by microbroth dilution (MH or 7H9 broth); type: cell-based, M. abscessus subsp. bolletii; conditions: Mycobacteroides abscessus, 103; for MBC: 7H9 broth, read-out: MBC99 M. abscessus subsp. bolletii 103
M. abscessus 103 [2] = experiment: Acute SCID mouse infection efficacy model; conditions: SCID mice i.v. infected with M. abscessus 103; compounds 300 mg/kg PO in 20% cyclodextrin, AMI 150 mg/kg SQ, once daily 8 days
M. avium 104 = experiment: MIC, resazurin microtiter assay; type: cell-based; conditions: Mueller Hinton II; for MIC: Mycobacterium avium, 104, read-out: MIC M. avium 104
mycobacteria = experiment: organism not typed; type: cell-based; conditions: lowest concentration reducing CFU by 90% relative to the inoculum; strain not stated; read-out: MBC90
M. chelonae ATCC 35752 = experiment: MIC, resazurin microtiter assay; type: cell-based; conditions: for MIC: Mycobacteroides chelonae, ATCC35752, Mueller Hinton II, read-out: MIC M. chelonae ATCC 35752; for Selectivity index (TD50/MIC): TD50 in THP-1 cells
M. intracellulare 1956 = experiment: MIC, resazurin microtiter assay; type: cell-based; conditions: Mueller Hinton II; for MIC: read-out: MIC M. avium Intracellulare 1956
M. xenopi WT = experiment: MIC, resazurin microtiter assay; type: cell-based; conditions: Mueller Hinton II; for MIC: Mycobacterium xenopi, read-out: MIC M. xenopi WT
M. massiliense CRM 0019 = experiment: MIC, resazurin microtiter assay; type: cell-based; conditions: for MIC: Mycobacteroides abscessus, CRM0019, Mueller Hinton II, read-out: MIC M. massiliense CRM 0019; for Selectivity Index (TD50/MIC) M. Massiliense CRM0019: TD50 in THP-1 cells
M. abscessus DCI #21 = experiment: MIC, resazurin microtiter assay; type: cell-based; conditions: for MIC: Mycobacteroides abscessus, read-out: MIC M. abscessus DCI #21; for Selectivity Index (TD50/MIC) M. abscessus DCI #21: TD50 in THP-1 cells
P. aeruginosa PAO-1 = experiment: MIC, resazurin microtiter assay; type: cell-based, Pseudomonas aeruginosa; conditions: Mueller Hinton II; for MIC: Pseudomonas aeruginosa, PAO1, read-out: MIC P. aeruginosa PAO-1
M. smegmatis mc^2155 = experiment: MIC, resazurin microtiter assay; type: cell-based; conditions: for MIC: Mycolicibacterium smegmatis, MC^2155, 7H9-ADC-0.05% Tween 80, read-out: MIC M. smeg. mc^2155
M. abscessus ATCC 19977 = experiment: MIC, resazurin microtiter assay; type: cell-based; conditions: Mueller Hinton II; for MIC: Mycobacteroides abscessus, ATCC19977, read-out: MIC M. abscessus ATCC 19977
S. aureus ATCC25923 = experiment: MIC, resazurin microtiter assay; type: cell-based; conditions: Staphylococcus aureus, ATCC25923; Mueller Hinton II; read-out: MIC S. aureus ATCC25923
M. bolletii ATCC 14472 = experiment: MIC, resazurin microtiter assay; type: cell-based; conditions: for MIC: Mycobacteroides abscessus, ATCC14472, Mueller Hinton II, read-out: MIC M. bolletii ATCC 14472; for Selectivity Index (TD50/MIC) M. bolletii: TD50 in THP-1 cells
[3] = system: M. massiliense CIP 108297; experiment: MIC, resazurin microtiter assay; type: cell-based; conditions: for MIC: Mycobacteroides abscessus, CIP108297, Mueller Hinton II, read-out: MIC M. massiliense CIP 108297
[4] = system: M. tuberculosis H37Rv mc^26206; experiment: microbe, parasite or virus in culture; type: cell-based; conditions: for Selectivity Index (TD50/MIC) M. tb H37Rv: TD50 in THP-1 cells; for MIC: Mycobacterium tuberculosis, H37RV, read-out: MIC M. tb H37 Rv (mc2-6206)
THP-1 cells = experiment: Cytotoxicity assay, THP-1 cell viability (CellTiter-Glo); type: cell-based, human; conditions: 3 days
Description: The cytotoxicity of compounds was determined by measuring THP-1 cell viability after 3 days in the presence of test compounds. Compounds were prepared as 10-point serial dilutions in DMSO. The highest concentration of compound tested was 50 μM where compounds were soluble in DMSO at 10 mM. THP-1 cells were cultured in complete RPMI and differentiated into macrophage-like cells using 80 nM PMA overnight at 37° C., 5% CO2. Cells were inoculated into assay plates and cultured for 24 h before compound dilutions were added to a final DMSO concentration of 0.5%. Each run included staurosporine as a control. Assay plates were incubated for 3 days at 37° C., 5% CO2, growth was measured using the CellTiter-Glo® Luminescent Cell Viability Assay (Promega) which uses ATP as an indicator of cell viability. Relative luminescent units (RLU) were measured using a Biotek Synergy 4 plate reader. The dose response curve was fitted using the Levenberg-Marquardt algorithm.

[5] = system: M. massiliense strain 1513; experiment: Metabolic labeling and mycolic acid analysis; conditions: 4x and 10x MIC, 16 hr, [1,2-14C]acetate labeling, TLC
Description: Cultures of M. massiliense 1513 grown to mid log-phase in Mueller-Hinton II broth were incubated with different concentrations of inhibitors for 16 hr at 37° C. with shaking. 0.5 μCi/mL [1,2-^14C]acetic acid (specific activity, 52 Ci/mol, PerkinElmer Inc.) was added at the same time as the inhibitors. Total lipids and cell wall-bound mycolic acid methyl esters were prepared from treated and untreated cells and analyzed by TLC as described in Grzegorzewicz et al, Nature Chemical Biology, 2012, 8:334+341.

[6] = read-out: MIC M. abscessus 1513, 7H9 Broth
[7] = read-out: MIC M. abscessus 1513, MH Broth
[8] = read-out: MIC M. abscessus 103, 7H9 Broth
[9] = read-out: MIC M. abscessus 103, MH Broth

Row | Compound | MIC (M. abscessus 1513; [6]) [µg/mL] | MIC (M. abscessus 1513; [7]) [µg/mL] | MIC (M. abscessus 103 [1]; [8]) [µg/mL] | MIC (M. abscessus 103 [1]; [9]) [µg/mL] | MIC (M. avium 104) [µg/mL] | MBC (mycobacteria) [µg/mL] | MIC (M. chelonae ATCC 35752) [µg/mL] | MIC (M. intracellulare 1956) [µg/mL] | MIC (M. xenopi WT) [µg/mL] | MIC (M. massiliense CRM 0019) [µg/mL] | MIC (M. abscessus DCI #21; Mueller Hinton II) [µg/mL] | MIC P. aeruginosa PAO-1 (P. aeruginosa PAO-1) | MIC (P. aeruginosa PAO-1) [µg/mL] | MIC (M. smegmatis mc^2155) [µg/mL] | MIC (M. abscessus ATCC 19977) [µg/mL] | MIC (S. aureus ATCC25923) [µg/mL] | MIC (M. bolletii ATCC 14472) [µg/mL] | MIC [3] [µg/mL] | MIC [4] [µg/mL] | other results
1 | CC[C@H]1OC(=O)[C@H](C)[C@@H](O[C@H]2C[C@@](C)(OC)[C@@H](O)[C@H](C)O2)[C@H](C)[C@@H](O[C@@H]2O[C@H](C)C[C@H](N(C)C)[C@H]2O)[C@](C)(OC)C[C@@H](C)C(=O)[C@H](C)[C@@H](O)[C@]1(C)O [clarithromycin, reference compound] | > 64 | > 64 | 16 (≈ 21.4 µM) | 4 (≈ 5.35 µM) | – | – | – | – | – | – | – | – | – | – | – | – | – | – | – | MBC (M. abscessus 1513): > 64 µg/mL; MBC (M. abscessus 103 [1]): > 64 µg/mL
2 | NCC[C@H](O)C(=O)N[C@@H]1C[C@H](N)[C@@H](O[C@H]2O[C@H](CN)[C@@H](O)[C@H](O)[C@H]2O)[C@H](O)[C@H]1O[C@H]1O[C@H](CO)[C@@H](O)[C@H](N)[C@H]1O [amikacin, reference compound] | > 64 | > 64 | 8 (≈ 13.7 µM) | 4 (≈ 6.83 µM) | – | – | – | – | – | – | – | – | – | – | – | – | – | – | – | MBC (M. abscessus 1513): > 64 µg/mL; log10 CFU liver counts on day 12 (M. abscessus 103 [2]): 4.03±0.62 log10 CFU; log10 CFU lung counts on day 12 (M. abscessus 103 [2]): 3.52±0.22 log10 CFU; log10 CFU spleen counts on day 12 (M. abscessus 103 [2]): 3.12±0.30 log10 CFU; MBC (M. abscessus 103 [1]): > 64 µg/mL
3 | Cc1cc(C)c2cc(C(=O)NC3CCCCCC3)[nH]c2c1 [Compound 26, N-cycloheptyl-4,6-dimethyl-1H-indole-2-carboxamide] | – | – | – | – | 2 (≈ 7.03 µM) | 0.015 (≈ 0.0527 µM) | ≤ 0.06 | 4 (≈ 14.1 µM) | 0.06 to 0.12 (≈ 0.211 to 0.422 µM) | ≤ 0.06 | ≤ 0.06 | inactive | > 160 | 0.625 (≈ 2.2 µM) | ≤ 0.06 | > 160 | ≤ 0.06 | ≤ 0.06 | – | –
4 | Cc1cc(C)c2cc(C(=O)N[C@@H]3C[C@@H]4C[C@H]([C@H]3C)C4(C)C)[nH]c2c1 [Compound 31, N-((1R,2R,3R,5S)-2,6,6-trimethylbicyclo[3.1.1]heptan-3-yl)-4,6-dimethyl-1H-indole-2-carboxamide] | > 64 | > 64 | > 64 | 16 (≈ 49.3 µM) | 2 (≈ 6.16 µM) | – | 0.125 (≈ 0.385 µM) | 2 (≈ 6.16 µM) | 0.25 to 1 (≈ 0.77 to 3.08 µM) | 0.125 (≈ 0.385 µM) | 0.125 (≈ 0.385 µM) | inactive | > 160 | 1.25 to 2.5 (≈ 3.85 to 7.7 µM) | 0.125 (≈ 0.385 µM) | > 160 | 0.125 (≈ 0.385 µM) | 0.125 (≈ 0.385 µM) | – | Selectivity index (TD50/MIC) (M. chelonae ATCC 35752): >130; Selectivity Index (TD50/MIC) M. Massiliense CRM0019 (M. massiliense CRM 0019): >130; Selectivity Index (TD50/MIC) M. abscessus DCI #21 (M. abscessus DCI #21): >130; Selectivity Index (TD50/MIC) M. tb H37Rv [4]: >830; TD50 (THP-1 cells): >16.2 µg/mL; Selectivity Index (TD50/MIC) M. bolletii (M. bolletii ATCC 14472): >130; TMM build-up and mycolic acid transfer onto arabinogalactan and TDM [5]: concentration-dependent build-up of TMM
5 | C[C@@H]1[C@H]2C[C@@H](C[C@H]1NC(=O)c1cc3ccccc3[nH]1)C2(C)C [Compound 16, N-((1R,2R,3R,5S)-2,6,6-trimethylbicyclo[3.1.1]heptan-3-yl)-1H-indole-2-carboxamide] | > 64 | > 64 | > 64 | 16 (≈ 54 µM) | 8 (≈ 27 µM) | 0.06 (≈ 0.202 µM) | < 0.06 | 8 (≈ 27 µM) | 0.5 to 1 (≈ 1.69 to 3.37 µM) | 0.06 (≈ 0.202 µM) | 0.5 (≈ 1.69 µM) | inactive | > 160 | 0.78 (≈ 2.63 µM) | 0.12 (≈ 0.405 µM) | 40 (≈ 135 µM) | 0.12 (≈ 0.405 µM) | 0.06 (≈ 0.202 µM) | 0.05 (≈ 0.169 µM) | Selectivity index (TD50/MIC) (M. chelonae ATCC 35752): >188; Selectivity Index (TD50/MIC) M. Massiliense CRM0019 (M. massiliense CRM 0019): 188; Selectivity Index (TD50/MIC) M. abscessus DCI #21 (M. abscessus DCI #21): 22.6; Selectivity Index (TD50/MIC) M. tb H37Rv [4]: 226; TD50 (THP-1 cells): 11.3 µg/mL; Selectivity Index (TD50/MIC) M. bolletii (M. bolletii ATCC 14472): 92; TMM build-up and mycolic acid transfer onto arabinogalactan and TDM [5]: concentration-dependent build-up of TMM
6 | Cc1cc(C)c2cc(C(=O)NC3CCC(C)CC3)[nH]c2c1 (stereo not shown) [Compound 30, N-4-methylcyclohexyl-4,6-dimethyl-1H-indole-2-carboxamide] | – | – | – | – | – | 0.03 (≈ 0.105 µM) | – | – | – | – | – | inactive | > 160 | – | – | > 160 | – | – | – | MIC M. avium 104 (M. avium 104): >32 µg/mL; MIC M. chelonae ATCC 35752 (M. chelonae ATCC 35752; Mueller Hinton II): ≤0.06 µg/mL; MIC M. avium Intracellulare 1956 (M. intracellulare 1956): >32 µg/mL; MIC M. xenopi WT (M. xenopi WT): 0.5 to 1 µg/mL; MIC M. massiliense CRM 0019 (M. massiliense CRM 0019; Mueller Hinton II): ≤0.06 µg/mL; MIC M. abscessus DCI #21 (M. abscessus DCI #21; Mueller Hinton II): ≤0.06 µg/mL; MIC M. smeg. mc^2155 (M. smegmatis mc^2155; 7H9-ADC-0.05% Tween 80): >20 µg/mL; MIC M. abscessus ATCC 19977 (M. abscessus ATCC 19977): ≤0.06 µg/mL; MIC M. bolletii ATCC 14472 (M. bolletii ATCC 14472; Mueller Hinton II): ≤0.06 µg/mL; MIC M. massiliense CIP 108297 ([3]; Mueller Hinton II): ≤0.06 µg/mL
7 | CCCCCCCNC(=O)c1cc2c(C)cc(C)cc2[nH]1 [Compound 32, N-heptyl-4,6-dimethyl-1H-indole-2-carboxamide] | – | – | – | – | > 32 | – | > 32 | > 32 | > 32 | > 32 | > 32 | – | – | 5 (≈ 17.5 µM) | > 32 | – | 32 (≈ 112 µM) | > 32 | > 5 | –
8 | O=C(NC1CCCCCCC1)c1cc2ccccc2[nH]1 [Compound 10, N-cyclooctyl-1H-indole-2-carboxamide] | – | – | – | – | > 32 | – | > 32 | > 32 | 2 (≈ 7.4 µM) | 32 (≈ 118 µM) | > 32 | – | – | 25 (≈ 92.5 µM) | > 32 | – | 32 (≈ 118 µM) | > 32 | 0.39 (≈ 1.44 µM) | –
